Measurements published in the NIST ThermoML archive (doi:10.1021/je900093h).

Settings: for vapor or sublimation pressure: Liquid, Calculated from knudsen effusion weight loss

CCCCCCCCCC(=O)OCC [ethyl decanoate]
Settings | Triple point temperature [K] | vapor or sublimation pressure [kPa]
293.77 K | – | 0.00169
298.67 K | – | 0.00267
298.72 K | – | 0.00267
303.68 K | – | 0.00414
308.61 K | – | 0.00648
313.57 K | – | 0.01
318.32 K | – | 0.0152
323.24 K | – | 0.0219
Crystal | 253.6 | –
